Experimental data: PMC10202811 (Nature Medicine, 2023)
Values joined by “and” are separate entries in the source; they are usually repeats but may differ in a detail not shown here. Equal entries are not always repeated. “Also recorded” adds a separate entry of the source.

How the values were obtained:
[1] = test system: ALK-driven refractory or relapsed neuroblastoma; assay: Anti-tumor response: best overall response by NANT response criteria version 2.0; format: in vivo, human
Text: Patients underwent disease staging at baseline, after courses 2 and 4 and then every four courses thereafter. The primary endpoint for response analysis is the BOR, defined as the best response observed before progression or start of another therapy. […] Response was graded according to the NANT response criteria version 2.0 (ref. [26]), modified from the International Neuroblastoma Response Criteria (INRC)[48]. NANT response criteria use three components for assessment of overall response: soft tissue response assessed by anatomical imaging and avidity on MIBG or FDG-PET; bone response assessed by uptake in bone by MIBG or bone involvement on FDG-PET; and bone marrow response assessed by morphology on bilateral aspirates and biopsies. Each response component (soft tissue, bone and bone marrow) are graded as CR, PR, SD and PD. Overall response grading is defined as: CR, if a response of CR in all components that are involved at baseline; PR, if a response of PR or better in all involved components; MR, if a response of PR or better but with at least one involved component as SD and no PD in all involved components; SD, if a response of SD in all involved components; and PD, if a response of PD in at least one involved component. The overall response definitions are identical to overall responses (CR, PR, SD and PD) as defined by the INRC. Response assessment is initially performed by sites and reviewed against source documents by NANT operations. Additional blinded central review of all radiological or pathological data was conducted for patients with overall PR or better and, in addition, radiologic pathological data of all involved sites for patients with MR to assign the final BOR on this study. Response by MIBG was determined using the Curie criteria. RR was determined as the proportion of patients with BOR of CR and PR in each cohort. Based on an international consensus by the National Cancer Institute Clinical Trials Planning Committee to refine tumor site eligibility criteria and evaluation of disease response for early-phase clinical trials in children with high-risk recurrent, refractory and progressive neuroblastoma, we also performed an ad hoc analysis to determine a modified RR that includes the proportion of patients with BOR of CR, PR and MR.

[2] = test system: ALK-driven refractory or relapsed neuroblastoma; assay: Progression-free survival and overall survival (Kaplan-Meier) by cohort; format: in vivo, human; settings: individual patients (PID); for PFS status: source data of Figure 3; for PFS time, years since on study: time is censored where PFS status is No event; for OS time, years since on study: time is censored where vital status is Alive
Text: Supplement 41591_2023_2297_MOESM8_ESM.xlsx, sheet "Figure 3" | column: PFS status; PFS time, years since on study; Vital status; OS time, years since on study

[3] = Cohort A1, Dose Level 1, individual patient
[4] = Cohort A1, Dose Level 3, individual patient
[5] = Cohort A1, Dose Level 4, individual patient
[6] = Cohort A2, Dose Level 3A, individual patient
[7] = Cohort A2, Dose Level 4A, individual patient
[8] = Cohort B2 (with topotecan/cyclophosphamide), DL4
[9] = Cohort B2 (with topotecan/cyclophosphamide), DL5
[10] = Cohort B2, Dose Level 4B, individual patient
[11] = Cohort B2, Dose Level 5B, individual patient

SMILES: C[C@H]1Oc2cc(cnc2N)-c2c(nn(C)c2C#N)CN(C)C(=O)c2ccc(F)cc21 [Lorlatinib, (10R)-7-amino-12-fluoro-2,10,16-trimethyl-15-oxo-10,15,16,17-tetrahydro-2H-8,4-(metheno)pyrazolo[4,3-h][2,5,11]-benzoxadiazacyclotetradecine-3-carbonitrile]
- patients with PD before or by the end of course 2 ([1]; <18 years, MYCN-amplified/ALK-mutated neuroblastoma (6/7), cohort A1): 86%
- CR, patients ([1]; Cohort A1 (N= 23), Total): 1
- MR, patients ([1]; Cohort A1 (N= 23), Total): 4
- PD, patients ([1]; Cohort A1 (N= 23), Total): 12
- PR, patients ([1]; Cohort A1 (N= 23), Total): 2
- CR+PR Rate ([1]; Cohort A1, DL1): 1/3
- CR+PR+MR Rate ([1]; Cohort A1, DL1): 2/3
- CR, patients ([1]; Cohort A1, DL1): 0
- MR, patients ([1]; Cohort A1, DL1): 1
- PD, patients ([1]; Cohort A1, DL1): 1
- PR, patients ([1]; Cohort A1, DL1): 1
- CR+PR Rate ([1]; Cohort A1, DL2): 0/2
- CR+PR+MR Rate ([1]; Cohort A1, DL2): 0/2
- CR, patients ([1]; Cohort A1, DL2): 0
- MR, patients ([1]; Cohort A1, DL2): 0
- PD, patients ([1]; Cohort A1, DL2): 2
- PR, patients ([1]; Cohort A1, DL2): 0
- CR+PR Rate ([1]; Cohort A1, DL3): 0/3
- CR+PR+MR Rate ([1]; Cohort A1, DL3): 0/3
- CR, patients ([1]; Cohort A1, DL3): 0
- MR, patients ([1]; Cohort A1, DL3): 0
- PD, patients ([1]; Cohort A1, DL3): 2
- PR, patients ([1]; Cohort A1, DL3): 0
- CR+PR Rate ([1]; Cohort A1, DL4): 0/9
- CR+PR+MR Rate ([1]; Cohort A1, DL4): 2/9
- CR, patients ([1]; Cohort A1, DL4): 0
- MR, patients ([1]; Cohort A1, DL4): 2
- PD, patients ([1]; Cohort A1, DL4): 5
- PR, patients ([1]; Cohort A1, DL4): 0
- CR+PR Rate ([1]; Cohort A1, DL5): 2/6
- CR+PR+MR Rate ([1]; Cohort A1, DL5): 3/6
- CR, patients ([1]; Cohort A1, DL5): 1
- MR, patients ([1]; Cohort A1, DL5): 1
- PD, patients ([1]; Cohort A1, DL5): 2
- PR, patients ([1]; Cohort A1, DL5): 1
- Course Best overall response is achieved [1, 3]: 14 and 2
- Patient status at end of course [1, 3]: Off therapy
- Course Best overall response is achieved ([1]; Cohort A1, Dose Level 2, individual patient): 2
- Course Best overall response is achieved [1, 4]: 2
- Patient status at end of course [1, 4]: Off therapy
- Course Best overall response is achieved [1, 5]: 2
- Patient status at end of course [1, 5]: Off therapy
- Course Best overall response is achieved ([1]; Cohort A1, Dose Level 5, individual patient): 4 and 6 and 2
- CR, patients ([1]; Cohort A2 (N=15), Total): 4
- MR, patients ([1]; Cohort A2 (N=15), Total): 3
- PD, patients ([1]; Cohort A2 (N=15), Total): 1
- PR, patients ([1]; Cohort A2 (N=15), Total): 3
- CR+PR Rate ([1]; Cohort A2, 100 mg): 2/5
- CR+PR+MR Rate ([1]; Cohort A2, 100 mg): 3/5
- CR, patients ([1]; Cohort A2, 100 mg): 0
- MR, patients ([1]; Cohort A2, 100 mg): 1
- PD, patients ([1]; Cohort A2, 100 mg): 1
- PR, patients ([1]; Cohort A2, 100 mg): 2
- CR+PR Rate ([1]; Cohort A2, 150 mg): 5/10
- CR+PR+MR Rate ([1]; Cohort A2, 150 mg): 7/10
- CR, patients ([1]; Cohort A2, 150 mg): 4
- MR, patients ([1]; Cohort A2, 150 mg): 2
- PD, patients ([1]; Cohort A2, 150 mg): 0
- PR, patients ([1]; Cohort A2, 150 mg): 1
- Course Best overall response is achieved [1, 6]: 6 and 2
- Patient status at end of course [1, 6]: Off therapy
- Course Best overall response is achieved [1, 7]: 4 and 10 and 6 and 2 and 1
- Patient status at end of course [1, 7]: Ongoing therapy; also recorded: Off therapy
- CR, patients ([1]; Cohort B2 (N=8), Total): 1
- MR, patients ([1]; Cohort B2 (N=8), Total): 3
- PD, patients ([1]; Cohort B2 (N=8), Total): 3
- PR, patients ([1]; Cohort B2 (N=8), Total): 1
- CR+PR Rate [1, 8]: 1/2
- CR+PR+MR Rate [1, 8]: 1/2
- CR, patients [1, 8]: 1
- MR, patients [1, 8]: 0
- PD, patients [1, 8]: 1
- PR, patients [1, 8]: 0
- CR+PR Rate [1, 9]: 1/6
- CR+PR+MR Rate [1, 9]: 4/6
- CR, patients [1, 9]: 0
- MR, patients [1, 9]: 3
- PD, patients [1, 9]: 2
- PR, patients [1, 9]: 1
- Course Best overall response is achieved [1, 10]: 2
- Patient status at end of course [1, 10]: Off therapy
- Course Best overall response is achieved [1, 11]: 2
- Patient status at end of course [1, 11]: Ongoing therapy; also recorded: Off therapy
- RR (BOR of CR or PR) ([1]; cohort A1 (3/23)): 13%
- median time to BOR ([1]; cohort A1, 11 of 23 patients with SD or better): two
- patients pre-treated with ALK TKI achieving MR or SD ([1]; cohort A1, four of nine): 44%
- modified RR (BOR of CR/PR/MR) ([1]; cohort A1, single agent, <18 years): 30%
- RR (BOR of CR/PR) ([1]; cohort A2 (7/15)): 47%
- median time to BOR ([1]; cohort A2, 14 of 15 patients with SD or better): four
- modified RR (BOR of CR/PR/MR) ([1]; cohort A2, single agent, ≥18 years): 67%
- responses in patients with prior ALK TKI ([1]; cohort A2, three of five): 60%
- median time to BOR of SD or better ([1]; cohort B2): two
- RR (BOR of CR/PR) ([1]; cohort B2 (2/8), with topotecan/cyclophosphamide): 25%
- patients with MYCN amplification achieving a PR ([1]; cohort B2, lorlatinib plus topotecan/cyclophosphamide): two of three
- modified RR (BOR of CR/PR/MR) ([1]; cohort B2, with topotecan/cyclophosphamide, <18 years): 63% and 62%
- Course when BOR obtained ([1]; individual patients with prior ALK inhibitor, Cohort A1, Dose Level 1): 2
- Course when BOR obtained ([1]; patients with prior ALK inhibitor, Cohort A1, Dose Level 1): 2
- Course when BOR obtained ([1]; patients with prior ALK inhibitor, Cohort A1, Dose Level 2): 2
- Course when BOR obtained ([1]; patients with prior ALK inhibitor, Cohort A1, Dose Level 3): 2
- Course when BOR obtained ([1]; patients with prior ALK inhibitor, Cohort A1, Dose Level 4): 2
- Course when BOR obtained ([1]; patients with prior ALK inhibitor, Cohort A1, Dose Level 5): 2
- Course when BOR obtained ([1]; patients with prior ALK inhibitor, Cohort A2, Dose Level 3A): 2
- Course when BOR obtained ([1]; patients with prior ALK inhibitor, Cohort B2, Dose Level 4B): 2
- Course when BOR obtained ([1]; patients with prior ALK inhibitor, Cohort B2, Dose Level 5B): 2 and 1
- Course when BOR obtained ([1]; prior ALK inhibitor, Cohort A1, Dose Level 2): 2
- Course when BOR obtained ([1]; prior ALK inhibitor, Cohort A1, Dose Level 3): 2
- Course when BOR obtained ([1]; prior ALK inhibitor, Cohort A1, Dose Level 4): 2
- Course when BOR obtained ([1]; prior ALK inhibitor, Cohort A1, Dose Level 5): 2
- Course when BOR obtained ([1]; prior ALK inhibitor, Cohort B2, Dose Level 4): 2
- Course when BOR obtained ([1]; prior ALK inhibitor, Cohort B2, Dose Level 5): 2 and 1
- Vital status ([2]; cohort A1): Alive; also recorded: Deceased
- PFS status ([2]; cohort A1): No event; also recorded: Relapsed/Deceased
- PFS time, years since on study ([2]; cohort A1): 3.67 years and 0.13 years and 2.37 years and 0.10 years and 1.50 years and 0.08 years and 3.43 years and 0.31 years and 0.0657 years and 1.07 years and 1.17 years and 0.15 years and 0.30 years and 4.15 years and 0.28 years and 0.11 years and 0.16 years
- OS time, years since on study ([2]; cohort A1): 3.67 years and 0.74 years and 3.43 years and 0.10 years and 1.50 years and 0.40 years and 0.36 years and 0.32 years and 0.39 years and 0.16 years and 2.28 years and 1.68 years and 0.20 years and 1.46 years and 1.11 years and 0.48 years and 0.56 years and 0.37 years and 4.15 years and 0.65 years and 0.63 years
- Vital status ([2]; cohort A2): Alive; also recorded: Deceased
- PFS status ([2]; cohort A2): No event; also recorded: Relapsed/Deceased
- PFS time, years since on study ([2]; cohort A2): 4.39 years and 0.15 years and 0.82 years and 1.03 years and 0.80 years and 2.07 years and 0.89 years and 0.77 years and 0.32 years and 2.48 years and 2.24 years and 1.46 years and 1.34 years and 0.93 years and 0.73 years
- OS time, years since on study ([2]; cohort A2): 4.39 years and 0.51 years and 1.86 years and 1.14 years and 1.78 years and 3.47 years and 0.89 years and 1.27 years and 1.10 years and 2.48 years and 2.24 years and 1.46 years and 1.34 years and 0.93 years and 0.73 years
- Vital status ([2]; cohort B2): Deceased; also recorded: Alive
- PFS status ([2]; cohort B2): Relapsed/Deceased; also recorded: No event
- PFS time, years since on study ([2]; cohort B2): 0.50 years and 0.66 years and 0.13 years and 0.45 years and 1.28 years and 0.06 years and 0.44 years and 0.70 years and 0.16 years
- OS time, years since on study ([2]; cohort B2): 1.16 years and 0.66 years and 0.41 years and 0.79 years and 1.28 years and 0.22 years and 0.44 years and 0.70 years and 0.54 years
